As a reminder, the IC50 is the midpoint of a concentration-inhibition curve.

In this test the target is T1, Human KLK1 (Homo sapiens, UniProt P06870).
T1 construct: purchased Callbiochem (Calbiochem)
T1 sequence (P06870 25-262): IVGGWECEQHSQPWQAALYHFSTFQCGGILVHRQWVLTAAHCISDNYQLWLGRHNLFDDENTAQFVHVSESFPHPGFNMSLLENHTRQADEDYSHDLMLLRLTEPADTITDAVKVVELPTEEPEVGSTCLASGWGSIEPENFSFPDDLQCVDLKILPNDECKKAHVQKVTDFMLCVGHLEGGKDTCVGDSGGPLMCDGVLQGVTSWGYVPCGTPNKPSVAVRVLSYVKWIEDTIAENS
Nature of the test: Determination of the IC50 for KLK1 (fluorogenic substrate H-DVal-Leu-Arg-AFC). It is filed as biochemical. The following applies: 37° C. The essentials: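 IC50 values reflect residual human KLK1 activity, read as initial rate from optical absorbance change at 410 nm. Incubations ran at 37° C with H-DVal-Leu-Arg-AFC as substrate across a compound concentration series.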
The molecule `COc1ccc2[nH]c(C(=O)N[C@@H](Cc3cccc(C(F)(F)F)c3)C(=O)NCc3ccc(N)nc3)cc2c1` [Example 308, 5-Methoxy-1H-indole-2-carboxylic acid [(S)-1-[(6-amino-pyridin-3-ylmethyl)-carbamoyl]-2-(3-trifluoromethyl-phenyl)-ethyl]-amide] showed an IC50 of 15.6 nM.
With `Nc1ccc(CNC(=O)[C@H](Cc2ccc(F)c(F)c2)NC(=O)[C@H]2CCCCN2)cn1` [Example 74, (R)-Piperidine-2-carboxylic acid [(S)-1-[(6-amino-pyridin-3-ylmethyl)-carbamoyl]-2-(3,4-difluoro-phenyl)-ethyl]-amide], the IC50 came out at 1.8 nM.
Turning to `CN1CCC[C@@H]1C(=O)N[C@@H](Cc1ccc(C(C)(C)C)cc1)C(=O)NCc1ccc(N)nc1` [Example 102, (R)-1-Methyl-pyrrolidine-2-carboxylic acid [(S)-1-[(6-amino-pyridin-3-ylmethyl)-carbamoyl]-2-(4-tert-butyl-phenyl)-ethyl]-amide], it took 258 nM to reach half-maximal inhibition (IC50).
Take `Cc1nc(N)ccc1CNC(=O)[C@H](Cc1ccc(F)c(F)c1)NC(=O)CN1C(C)CCCC1C` (stereo partly drawn) [Example 429, (S)—N-(6-Amino-2-methyl-pyridin-3-ylmethyl)-3-(3,4-difluoro-phenyl)-2-[2-(2,6-dimethyl-piperidin-1-yl)-acetylamino]-propionamide]: inhibition was half-maximal at 1.7 nM (IC50).
Take `CC(C)[C@@H](C(=O)N[C@@H](Cc1ccc(F)cc1)C(=O)NCc1ccc(N)nc1)N(C)C(C)C` [Example 370, (S)—N-[(S)-1-[(6-Amino-pyridin-3-ylmethyl)-carbamoyl]-2-(4-fluoro-phenyl)-ethyl]-2-(isopropyl-methyl-amino)-3-methyl-butyramide]: the IC50 was found to be 11.3 nM.
`CC(C)N1CCC[C@@H]1C(=O)N[C@@H](Cc1ccccc1Cl)C(=O)NCc1ccc(N)nc1` [Example 126, (R)-1-Isopropyl-pyrrolidine-2-carboxylic acid [(S)-1-[(6-amino-pyridin-3-ylmethyl)-carbamoyl]-2-(2-chloro-phenyl)-ethyl]-amide] had an IC50 of 9.3 nM.
Consider `Nc1ccc(CNC(=O)[C@H](CC2CCCCC2)NC(=O)c2cc3ccccc3[nH]2)cn1` [Example 338, 1H-Indole-2-carboxylic acid {(S)-1-[(6-amino-pyridin-3-ylmethyl)-carbamoyl]-2-cyclohexyl-ethyl}-amide], for which the concentration for half-maximal inhibition (IC50) turned out to be 881 nM.
As for `CN[C@@H](C(=O)N[C@@H](Cc1ccc(F)cc1)C(=O)NCc1ccc(N)nc1)C(C)C` [Example 89, (R)—N-[(S)-1-[(6-Amino-pyridin-3-ylmethyl)-carbamoyl]-2-(4-fluoro-phenyl)-ethyl]-3-methyl-2-methylamino-butyramide], the figure is 11 nM; as for `CC(C)N1CCC[C@@H]1C(=O)N[C@@H](Cc1ccc(F)cc1)C(=O)NCc1ccc(N)nc1` [Example 119, (R)-1-Isopropyl-pyrrolidine-2-carboxylic acid [(S)-1-[(6-amino-pyridin-3-ylmethyl)-carbamoyl]-2-(4-fluoro-phenyl)-ethyl]-amide], 1.8 nM.
With `CCC(C)[C@@H](NC)C(=O)N[C@@H](Cc1cccc(C(F)(F)F)c1)C(=O)NCc1ccc(N)nc1` (stereo partly drawn) [Example 42, (R)-3-Methyl-2-methylamino-pentanoic acid [(S)-1-[(6-amino-pyridin-3-ylmethyl)-carbamoyl]-2-(3-trifluoromethyl-phenyl)-ethyl]-amide] the figure was 1.4 nM; with `CCC(C)[C@@H](NC)C(=O)N[C@@H](Cc1csc2ccccc12)C(=O)NCc1ccc(N)nc1` (stereo partly drawn) [Example 51, (R)-3-Methyl-2-methylamino-pentanoic acid {(S)-1-[(6-amino-pyridin-3-ylmethyl)-carbamoyl]-2-benzo[b]thiophen-3-yl-ethyl}-amide], 0.26 nM.
The molecule `Cc1ccccc1C[C@H](NC(=O)[C@H]1CCCN1C(C)C)C(=O)NCc1ccc(N)nc1` [Example 121, (R)-1-Isopropyl-pyrrolidine-2-carboxylic acid {(S)-1-[(6-amino-pyridin-3-ylmethyl)-carbamoyl]-2-o-tolyl-ethyl}-amide] came in with a half-maximal inhibitory concentration (IC50) of 11 nM.
Consider `CCC(C)[C@@H](N)C(=O)N[C@@H](Cc1ccc(Cl)cc1)C(=O)NCc1ccc(N)nc1` (stereo partly drawn) [Example 36, (R)-2-Amino-3-methyl-pentanoic acid [(S)-1-[(6-amino-pyridin-3-ylmethyl)-carbamoyl]-2-(4-chloro-phenyl)-ethyl]-amide], for which the IC50 turned out to be 1.6 nM.
As for `COc1ccc2[nH]c(C(=O)N[C@@H](Cc3ccc(F)c(F)c3)C(=O)NCc3ccc(N)nc3)cc2c1` [Example 327, 5-Methoxy-1H-indole-2-carboxylic acid [(S)-1-[(6-amino-pyridin-3-ylmethyl)-carbamoyl]-2-(3,4-difluoro-phenyl)-ethyl]-amide], the figure is 17.8 nM; as for `Nc1ccc(CNC(=O)[C@H](Cc2cccc3ccccc23)NC(=O)[C@H]2CCCCN2)cn1` [Example 75, (R)-Piperidine-2-carboxylic acid {(S)-1-[(6-amino-pyridin-3-ylmethyl)-carbamoyl]-2-naphthalen-1-ylethyl}-amide], 2.2 nM; as for `Nc1ccc(CNC(=O)[C@H](Cc2ccc(Cl)c(Cl)c2)NC(=O)[C@@H](N)c2ccccc2)cn1` [Example 58, (S)-2-((S)-2-Amino-2-phenyl-acetylamino)-N-(6-amino-pyridin-3-ylmethyl)-3-(3,4-dichloro-phenyl)-propionamide], 48.6 nM.
As for `CCCN(CCC)[C@@H](C)C(=O)N[C@@H](CC1CCCCC1)C(=O)NCc1ccc(N)nc1` [Example 385, (S)—N-{(S)-1-[(6-Amino-pyridin-3-ylmethyl)-carbamoyl]-2-cyclohexyl-ethyl}-2-dipropylaminopropionamide], half-maximal inhibition (IC50) was put at 107 nM.
Molecule `CN1CCC[C@H]1C(=O)N[C@@H](C(=O)NCc1ccc(N)nc1)C(C1CCCCC1)C1CCCCC1` [Example 223, (S)-1-Methyl-pyrrolidine-2-carboxylic acid {(R)-1-[(6-amino-pyridin-3-ylmethyl)-carbamoyl]-2,2-dicyclohexyl-ethyl}-amide] displayed an IC50 of 17.4 nM.
As for `CN(CC(=O)N[C@@H](Cc1ccc(F)c(F)c1)C(=O)NCc1ccc(N)nc1)Cc1ccccc1Cl` [Example 165, (S)—N-(6-Amino-pyridin-3-ylmethyl)-2-{2-[(2-chloro-benzyl)-methyl-amino]-acetylamino}-3-(3,4-difluoro-phenyl)-propionamide], the figure is 83.5 nM; as for `COc1cccc(C[C@H](NC(=O)[C@H]2CCCN2C(C)C)C(=O)NCc2ccc(N)nc2)c1` [Example 124, (R)-1-Isopropyl-pyrrolidine-2-carboxylic acid [(S)-1-[(6-amino-pyridin-3-ylmethyl)-carbamoyl]-2-(3-methoxy-phenyl)-ethyl]-amide], 36.8 nM.
As for `Nc1ccc(CNC(=O)[C@H](Cc2ccc(F)c(F)c2)NC(=O)CN2CCCC2)cn1` [Example 366, (S)—N-(6-Amino-pyridin-3-ylmethyl)-3-(3,4-difluoro-phenyl)-2-(2-pyrrolidin-1-yl-acetylamino)-propionamide], the IC50 turned out to be 54.5 nM.
In the case of `CCCN1CCC[C@@H]1C(=O)N[C@@H](Cc1ccc(F)cc1)C(=O)NCc1ccc(N)nc1` [Example 139, (R)-1-Propyl-pyrrolidine-2-carboxylic acid [(S)-1-[(6-amino-pyridin-3-ylmethyl)-carbamoyl]-2-(4-fluoro-phenyl)-ethyl]-amide], the concentration for half-maximal inhibition (IC50) is 3.7 nM.
The molecule `Cc1nc(N)ccc1CNC(=O)[C@H](Cc1ccccc1C(F)(F)F)NC(=O)c1cc2ccccc2[nH]1` [Example 322, 1H-Indole-2-carboxylic acid [(S)-1-[(6-amino-2-methyl-pyridin-3-ylmethyl)-carbamoyl]-2-(2-trifluoromethyl-phenyl)-ethyl]-amide] displayed a half-inhibitory concentration (IC50) of 12.4 nM.
In the case of `CCC(C)C(NC)C(=O)NC(Cc1c(F)c(F)c(F)c(F)c1F)C(=O)NCc1ccc(N)nc1` [Example 50, (R)-3-Methyl-2-methylamino-pentanoic acid {(S)-1-[(6-amino-pyridin-3-ylmethyl)-carbamoyl]-2-pentafluorophenyl-ethyl}-amide], half-maximal inhibition (IC50) required 29.1 nM.
`COc1ccc(C[C@H](NC(=O)c2cc3ccccc3[nH]2)C(=O)NCc2ccc(N)nc2)cc1` [Example 334, 1H-Indole-2-carboxylic acid [(S)-1-[(6-amino-pyridin-3-ylmethyl)-carbamoyl]-2-(4-methoxy-phenyl)-ethyl]-amide] returned an IC50 of 235 nM.
Consider `Nc1ccc(CNC(=O)[C@H](Cc2ccc(Cl)c(Cl)c2)NC(=O)[C@H]2Cc3ccccc3CN2)cn1` [Example 64, (R)-1,2,3,4-Tetrahydro-isoquinoline-3-carboxylic acid [(S)-1-[(6-amino-pyridin-3-ylmethyl)-carbamoyl]-2-(3,4-dichloro-phenyl)-ethyl]-amide], for which the IC50 was determined as 3.1 nM.
`Nc1ccc(CNC(=O)[C@H](Cc2ccc(F)c(F)c2)NC(=O)[C@H]2CCCN2Cc2ccc(Cl)cc2)cn1` [Example 142, (R)-1-(4-Chloro-benzyl)-pyrrolidine-2-carboxylic acid [(S)-1-[(6-amino-pyridin-3-ylmethyl)-carbamoyl]-2-(3,4-difluoro-phenyl)-ethyl]-amide] registered an IC50 of 15 nM.
With `CC(C)[C@H](C(=O)N[C@@H](Cc1ccc(F)c(F)c1)C(=O)NCc1ccc(N)nc1)N(C)C` [Example 359, (R)—N-[(S)-1-[(6-Amino-pyridin-3-ylmethyl)-carbamoyl]-2-(3,4-difluoro-phenyl)-ethyl]-2-dimethylamino-3-methyl-butyramide], half-maximal inhibition (IC50) was put at 5 nM.
`Cc1cc(C)c(C(=O)N[C@@H](Cc2cccc(F)c2)C(=O)NCc2ccc(N)nc2)[nH]1` [Example 236, 3,5-Dimethyl-1H-pyrrole-2-carboxylic acid [(S)-1-[(6-amino-pyridin-3-ylmethyl)-carbamoyl]-2-(3-fluoro-phenyl)-ethyl]-amide] came in with an IC50 of 9 nM.
In turn, `CNC(C)(C)C(=O)N[C@@H](Cc1ccc(F)c(F)c1)C(=O)NCc1ccc(N)nc1` [Example 86, N-[(S)-1-[(6-Amino-pyridin-3-ylmethyl)-carbamoyl]-2-(3,4-difluoro-phenyl)-ethyl]-2-methyl-2-methylamino-propionamide] gave an IC50 of 15.5 nM.

The record behind these values is patent US20100076015A1, “Aminopyridine Derivatives” (VANTIA LIMITED, priority 2008, published 2010).
